The values below are quoted from earlier work in patent US20220226232A1, “Dental formulation comprising xylitol and propolis” (SERVIDENCE INC., priority 2021, published 2022).

The conditions of the series: oral exposition.

Take `OC[C@@H](O)[C@H](O)[C@@H](O)CO` [xylitol]: the prevention of otitis is given as 20%.
